Legend:
[1] = target: hERG (KCNH2) potassium channel (Homo sapiens, UniProt Q12809); test: Inhibition of Potassium Channel hERG at 10 µM in the Eurofins-Panlabs radioligand binding assay (Eurofins_assay_265900); set-up: ligand concentration 1.5 nM, non-specific ligand with concentration Astemizole, incubation time 60 min, incubation temperature 25 °C; details: HEK-293 cells expressing human recombinant hERG, probe [3H] Astemizole, 1.5 nM, compound concentration 10 uM
[2] = target: Bombesin receptor (Rattus norvegicus) (UniProt P52500+P24053+Q8K418); test: Bombesin, Non-Selective Eurofins-Panlabs radioligand binding assay; format: protein assay; details: Compound concentration 10.0 uM
Phosphodiesterase PDE1 = Phosphodiesterase PDE1 (Bos taurus, UniProt Q01061+P14100+A0A3Q1MCV4); test: (§1) Phosphodiesterase PDE1 Eurofins-Panlabs enzyme assay; format: protein assay; set-up: substrate with concentration [3H] cAMP + cAMP, incubation time 20 min, incubation temperature 25 °C
[3] = target: Phosphodiesterase PDE1 (Bos taurus) (UniProt Q01061+P14100+A0A3Q1MCV4); test: as §1; format: protein assay; set-up: substrate with concentration [3H] cAMP + cAMP, incubation time 20 min, incubation temperature 25 °C
[4] = target: Vascular endothelial growth factor receptor 1 (Homo sapiens) (UniProt P17948); test: Protein Tyrosine Kinase, FLT1 (VEGFR-1) Eurofins-Panlabs enzyme assay; details: Compound concentration 10.0 uM
Chain of Vascular endothelial growth factor receptor 1 (Homo sapiens) (P17948 whole entry): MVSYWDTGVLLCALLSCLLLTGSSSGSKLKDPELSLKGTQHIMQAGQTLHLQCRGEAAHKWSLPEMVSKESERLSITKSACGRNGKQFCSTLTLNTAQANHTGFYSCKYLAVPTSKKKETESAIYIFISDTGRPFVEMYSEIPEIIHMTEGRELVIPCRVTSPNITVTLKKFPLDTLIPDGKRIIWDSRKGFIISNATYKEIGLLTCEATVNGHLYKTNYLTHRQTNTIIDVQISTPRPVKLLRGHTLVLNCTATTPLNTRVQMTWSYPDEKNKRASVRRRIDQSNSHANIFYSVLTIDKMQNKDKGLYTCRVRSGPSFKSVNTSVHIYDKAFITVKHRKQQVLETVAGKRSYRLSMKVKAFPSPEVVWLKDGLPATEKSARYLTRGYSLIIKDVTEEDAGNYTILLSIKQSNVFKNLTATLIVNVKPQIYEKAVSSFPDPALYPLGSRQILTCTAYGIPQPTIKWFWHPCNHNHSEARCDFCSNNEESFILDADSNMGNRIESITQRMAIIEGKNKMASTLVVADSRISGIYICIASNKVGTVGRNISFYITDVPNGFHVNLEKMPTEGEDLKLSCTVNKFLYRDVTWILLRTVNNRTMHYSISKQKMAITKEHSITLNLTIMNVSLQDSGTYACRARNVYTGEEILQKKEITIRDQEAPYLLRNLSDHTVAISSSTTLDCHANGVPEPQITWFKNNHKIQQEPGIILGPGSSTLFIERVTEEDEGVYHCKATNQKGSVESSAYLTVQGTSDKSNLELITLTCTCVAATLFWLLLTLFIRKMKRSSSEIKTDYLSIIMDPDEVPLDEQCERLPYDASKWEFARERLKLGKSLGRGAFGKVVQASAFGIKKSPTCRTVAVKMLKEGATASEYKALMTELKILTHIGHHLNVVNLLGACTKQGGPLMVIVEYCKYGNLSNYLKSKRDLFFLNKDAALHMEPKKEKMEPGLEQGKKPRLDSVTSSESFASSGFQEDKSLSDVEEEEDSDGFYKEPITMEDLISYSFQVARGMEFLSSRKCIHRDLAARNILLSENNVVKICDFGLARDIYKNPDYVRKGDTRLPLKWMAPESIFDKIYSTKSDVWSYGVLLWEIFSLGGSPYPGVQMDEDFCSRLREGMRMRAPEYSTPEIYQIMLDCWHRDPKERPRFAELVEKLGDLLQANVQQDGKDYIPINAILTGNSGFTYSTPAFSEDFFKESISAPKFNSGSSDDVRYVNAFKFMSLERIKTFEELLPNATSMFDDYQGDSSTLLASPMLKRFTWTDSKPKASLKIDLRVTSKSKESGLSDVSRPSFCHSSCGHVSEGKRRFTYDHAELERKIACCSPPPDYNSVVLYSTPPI

Rattus norvegicus = species: Rattus norvegicus; test: Adrenergic α2, Non-selective Eurofins-Panlabs radioligand binding assay; format: protein assay; details: Compound concentration 10.0 uM
[5] = target: D(3) dopamine receptor (Homo sapiens) (UniProt P35462)
Chain of D(3) dopamine receptor (Homo sapiens) (P35462 whole entry): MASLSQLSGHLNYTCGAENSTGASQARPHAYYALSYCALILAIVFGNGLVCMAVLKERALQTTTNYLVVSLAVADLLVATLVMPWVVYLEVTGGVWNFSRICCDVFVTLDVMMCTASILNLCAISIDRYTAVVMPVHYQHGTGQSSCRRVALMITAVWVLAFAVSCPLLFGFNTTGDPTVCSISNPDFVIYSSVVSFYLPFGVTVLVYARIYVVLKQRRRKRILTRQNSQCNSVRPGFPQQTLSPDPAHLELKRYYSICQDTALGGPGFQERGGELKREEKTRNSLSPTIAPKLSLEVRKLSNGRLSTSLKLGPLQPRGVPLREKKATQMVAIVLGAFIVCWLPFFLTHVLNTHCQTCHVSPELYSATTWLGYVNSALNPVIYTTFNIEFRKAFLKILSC

[6] = target: Neuropeptide Y receptor type 1 (Homo sapiens) (UniProt P25929); test: Inhibition of Neuropeptide Y Y1 at 10 µM in the Eurofins-Panlabs radioligand binding assay (Eurofins_assay_257010)
[7] = target: Kappa-type opioid receptor (Homo sapiens, UniProt P41145); test: Inhibition of Opiate kappa (OP2, KOP) at compound concentration of 10.0 uM in the Eurofins-Panlabs radioligand binding assay (Eurofins_assay_260210); set-up: ligand concentration 0.6 nM, non-specific ligand with concentration 10 uM Naloxone, incubation time 60 min, incubation temperature 25 C
Chain of Kappa-type opioid receptor (P41145 whole entry): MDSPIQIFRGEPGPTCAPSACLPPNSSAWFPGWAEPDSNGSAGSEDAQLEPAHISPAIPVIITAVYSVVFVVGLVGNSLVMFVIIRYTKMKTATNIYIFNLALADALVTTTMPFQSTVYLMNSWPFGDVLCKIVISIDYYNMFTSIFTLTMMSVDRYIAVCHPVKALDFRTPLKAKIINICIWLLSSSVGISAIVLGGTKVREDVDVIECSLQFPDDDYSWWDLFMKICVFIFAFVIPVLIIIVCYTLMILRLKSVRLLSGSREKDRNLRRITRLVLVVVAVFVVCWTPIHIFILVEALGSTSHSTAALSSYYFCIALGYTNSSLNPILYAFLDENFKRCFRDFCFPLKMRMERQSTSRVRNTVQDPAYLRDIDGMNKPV

[8] = target: Tyrosine-protein phosphatase non-receptor type 2 (Homo sapiens) (UniProt P17706); test: Protein Tyrosine Phosphatase, PTPN2 (TCPTP) Eurofins-Panlabs enzyme assay; set-up: substrate with concentration DiFMUP, incubation time 60 min, incubation temperature 37 °C; details: Compound concentration 10.0 uM
Chain of Tyrosine-protein phosphatase non-receptor type 2 (Homo sapiens) (P17706 whole entry): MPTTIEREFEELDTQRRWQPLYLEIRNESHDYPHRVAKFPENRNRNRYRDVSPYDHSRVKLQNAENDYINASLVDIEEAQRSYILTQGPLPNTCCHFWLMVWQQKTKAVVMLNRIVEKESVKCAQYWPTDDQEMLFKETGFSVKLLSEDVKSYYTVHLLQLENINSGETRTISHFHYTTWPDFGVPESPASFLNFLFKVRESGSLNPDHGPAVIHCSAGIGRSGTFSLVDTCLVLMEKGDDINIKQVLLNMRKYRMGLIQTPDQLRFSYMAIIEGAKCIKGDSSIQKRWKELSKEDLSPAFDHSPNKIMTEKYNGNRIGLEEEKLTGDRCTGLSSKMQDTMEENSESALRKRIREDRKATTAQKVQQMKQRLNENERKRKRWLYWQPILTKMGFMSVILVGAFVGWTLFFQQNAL

[9] = target: Prostaglandin D2 receptor (Homo sapiens) (UniProt Q13258); test: Prostanoid DP Eurofins-Panlabs radioligand binding assay; details: Compound concentration 10.0 uM
[10] = target: Glutamate receptor 2 (Homo sapiens) (UniProt P42262); details: Rattus norvegicus; Compound concentration 10.0 uM
[11] = target: Beta-1 adrenergic receptor (Homo sapiens) (UniProt P08588); details: Compound concentration 10.0 uM
Chain of Beta-1 adrenergic receptor (Homo sapiens) (P08588 whole entry, looked up): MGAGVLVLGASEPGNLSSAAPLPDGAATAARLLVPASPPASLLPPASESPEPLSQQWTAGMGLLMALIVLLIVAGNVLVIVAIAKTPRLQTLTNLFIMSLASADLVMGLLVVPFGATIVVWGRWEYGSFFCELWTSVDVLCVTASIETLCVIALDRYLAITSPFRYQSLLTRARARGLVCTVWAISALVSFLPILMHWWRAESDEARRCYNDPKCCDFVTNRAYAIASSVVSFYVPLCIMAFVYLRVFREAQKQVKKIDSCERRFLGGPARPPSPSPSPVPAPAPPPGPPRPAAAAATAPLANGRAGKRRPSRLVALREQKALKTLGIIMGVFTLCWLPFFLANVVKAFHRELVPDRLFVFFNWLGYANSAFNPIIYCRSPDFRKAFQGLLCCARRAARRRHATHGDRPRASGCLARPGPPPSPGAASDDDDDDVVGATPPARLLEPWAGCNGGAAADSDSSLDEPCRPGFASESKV

[12] = target: Beta-3 adrenergic receptor (Homo sapiens, UniProt P13945); test: Inhibition of Adrenergic beta3 at compound concentration of 10.0 uM in the Eurofins-Panlabs radioligand binding assay (Eurofins_assay_204200); set-up: ligand concentration 0.5 nM, non-specific ligand with concentration 1000 uM Alprenolol, incubation time 90 min, incubation temperature 25 C
Chain of Beta-3 adrenergic receptor (P13945 whole entry): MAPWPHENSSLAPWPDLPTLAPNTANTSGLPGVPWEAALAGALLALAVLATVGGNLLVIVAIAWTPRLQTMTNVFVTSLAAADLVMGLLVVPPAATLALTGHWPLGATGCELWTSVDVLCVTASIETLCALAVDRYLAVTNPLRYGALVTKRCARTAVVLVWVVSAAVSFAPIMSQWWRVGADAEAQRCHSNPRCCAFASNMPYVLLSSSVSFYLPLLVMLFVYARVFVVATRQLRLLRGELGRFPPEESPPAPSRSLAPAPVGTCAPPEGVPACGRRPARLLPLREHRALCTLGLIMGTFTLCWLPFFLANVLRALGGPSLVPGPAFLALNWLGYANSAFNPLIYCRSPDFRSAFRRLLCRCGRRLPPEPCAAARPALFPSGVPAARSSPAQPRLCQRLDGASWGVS

[13] = target: Tyrosine 3-monooxygenase (Homo sapiens) (UniProt P07101); test: Tyrosine Hydroxylase Eurofins-Panlabs enzyme assay; set-up: substrate with concentration; details: Rattus norvegicus; Compound concentration 10.0 uM
[14] = target: Mitogen-activated protein kinase 3 (Homo sapiens) (UniProt P27361); test: Inhibition of Protein Serine/Threonine Kinase, MAPK3 (ERK1) at 10 µM in the Eurofins-Panlabs enzyme assay (Eurofins_assay_171000); details: Compound concentration […]
Chain of Mitogen-activated protein kinase 3 (Homo sapiens) (P27361 whole entry): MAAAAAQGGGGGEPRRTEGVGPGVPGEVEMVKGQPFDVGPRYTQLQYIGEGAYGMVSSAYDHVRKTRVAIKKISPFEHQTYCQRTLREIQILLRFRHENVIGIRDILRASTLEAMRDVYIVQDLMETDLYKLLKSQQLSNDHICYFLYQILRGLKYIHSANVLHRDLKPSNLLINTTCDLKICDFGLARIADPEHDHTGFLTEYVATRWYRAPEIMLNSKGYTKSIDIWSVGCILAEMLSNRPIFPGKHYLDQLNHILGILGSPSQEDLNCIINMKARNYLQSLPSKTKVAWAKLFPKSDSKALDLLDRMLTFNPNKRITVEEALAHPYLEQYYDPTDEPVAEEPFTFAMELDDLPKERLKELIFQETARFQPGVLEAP

[15] = target: Calcitonin receptor (Homo sapiens) (UniProt P30988); test: Inhibition of Calcitonin at 10 µM in the Eurofins-Panlabs radioligand binding assay (Eurofins_assay_213610)
[16] = target: Adenosine receptor A1 (Homo sapiens) (UniProt P30542); details: Compound concentration 10.0 uM
[17] = target: Prostacyclin receptor (Homo sapiens) (UniProt P43119); test: Prostanoid IP Eurofins-Panlabs radioligand binding assay; set-up: ligand concentration 5 nM; details: Compound concentration 10.0 uM
[18] = target: B1 bradykinin receptor (Homo sapiens) (UniProt P46663); test: Bradykinin B1 Eurofins-Panlabs radioligand binding assay; details: Compound concentration 10.0 uM
[19] = target: C-X-C chemokine receptor type 2 (Homo sapiens) (UniProt P25025); test: Inhibition of Chemokine CXCR2 (IL-8RB) at 10 µM in the Eurofins-Panlabs radioligand binding assay (Eurofins_assay_244500)
Chain of C-X-C chemokine receptor type 2 (Homo sapiens) (P25025 whole entry): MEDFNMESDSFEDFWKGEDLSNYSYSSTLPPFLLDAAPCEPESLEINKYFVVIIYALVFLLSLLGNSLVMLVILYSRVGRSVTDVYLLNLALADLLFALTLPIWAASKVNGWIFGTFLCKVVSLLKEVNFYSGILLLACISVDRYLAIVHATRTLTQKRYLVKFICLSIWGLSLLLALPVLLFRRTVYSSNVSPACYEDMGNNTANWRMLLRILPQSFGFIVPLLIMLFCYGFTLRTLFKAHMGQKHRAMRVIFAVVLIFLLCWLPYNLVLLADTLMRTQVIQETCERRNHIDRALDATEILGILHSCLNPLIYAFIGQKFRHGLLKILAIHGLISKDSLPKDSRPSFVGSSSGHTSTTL

[20] = target: Galanin receptor type 1 (Homo sapiens) (UniProt P47211); test: Galanin GAL1 Eurofins-Panlabs radioligand binding assay; details: Compound concentration 10.0 uM
[21] = target: Sodium-dependent noradrenaline transporter (Homo sapiens, UniProt P23975); test: Inhibition of Transporter, Norepinephrine (NET) at compound concentration of 10.0 uM in the Eurofins-Panlabs radioligand binding assay (Eurofins_assay_204410); set-up: ligand concentration 0.2 nM, non-specific ligand with concentration 10 uM Desipramine, incubation time 3 h, incubation temperature 4 C
Chain of Sodium-dependent noradrenaline transporter (P23975 whole entry): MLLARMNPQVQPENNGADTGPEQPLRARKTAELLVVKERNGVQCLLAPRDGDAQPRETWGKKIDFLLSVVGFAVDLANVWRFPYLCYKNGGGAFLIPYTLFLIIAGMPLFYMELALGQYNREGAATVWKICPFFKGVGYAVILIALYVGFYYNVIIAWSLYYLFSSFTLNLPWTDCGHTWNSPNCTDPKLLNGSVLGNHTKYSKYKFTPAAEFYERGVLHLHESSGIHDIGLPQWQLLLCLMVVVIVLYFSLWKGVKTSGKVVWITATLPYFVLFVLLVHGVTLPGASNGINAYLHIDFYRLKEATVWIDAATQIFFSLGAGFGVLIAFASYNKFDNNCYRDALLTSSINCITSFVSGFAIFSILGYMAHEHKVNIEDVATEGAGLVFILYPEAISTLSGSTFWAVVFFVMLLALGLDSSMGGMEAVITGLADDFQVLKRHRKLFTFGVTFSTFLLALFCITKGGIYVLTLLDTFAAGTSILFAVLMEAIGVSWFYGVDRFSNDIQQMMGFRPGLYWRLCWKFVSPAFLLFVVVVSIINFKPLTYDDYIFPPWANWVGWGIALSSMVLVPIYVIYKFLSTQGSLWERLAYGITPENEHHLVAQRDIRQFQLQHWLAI

[22] = target: Protein kinase C iota type (Homo sapiens) (UniProt P41743); details: Compound concentration 1000.0 nM
[23] = target: Prostaglandin G/H synthase 1 (Homo sapiens) (UniProt P23219); test: Inhibition of Cyclooxygenase COX-1 at compound concentration of 10.0 uM in the Eurofins-Panlabs enzyme assay (Eurofins_assay_116020); details: Compound concentration 10.0 uM
[24] = target: Glutamate receptor ionotropic, kainate (Rattus norvegicus) (UniProt P22756+Q01812+P42260+P42264+Q63273); test: Inhibition of Glutamate, Kainate at 10 µM in the Eurofins-Panlabs radioligand binding assay (Eurofins_assay_232700); details: Compound concentration 10.0 uM
[25] = target: L-type calcium channel, dihydropyridine site (Cav1.2 alpha-1C) (Homo sapiens, UniProt Q13936); test: Inhibition of Calcium Channel L-Type, Dihydropyridine at 10 µM in the Eurofins-Panlabs radioligand binding assay (Eurofins_assay_214600); set-up: ligand concentration 0.1 nM, non-specific ligand with concentration 1 µM Nitrendipine, incubation time 90 min, incubation temperature 25 °C; details: Wistar, rat, rat cerebral cortex preparation, probe [3H] Nitrendipine, 0.1 nM; compound concentration 10 uM; target entry is the homologue from another species
[26] = target: Cysteinyl leukotriene receptor 1 (Homo sapiens, UniProt Q9Y271); test: (§2) Inhibition of Leukotriene, Cysteinyl CysLT1 at 10 µM in the Eurofins-Panlabs radioligand binding assay (Eurofins_assay_250460); set-up: ligand concentration 0.3 nM, non-specific ligand with concentration 0.3 µM Leukotriene D4, incubation time 30 min, incubation temperature 25 °C
[27] = target: T1, Cysteinyl leukotriene receptor 1 (Homo sapiens) (UniProt Q9Y271); test: as §2; set-up: ligand concentration 0.3 nM, non-specific ligand with concentration 0.3 µM Leukotriene D4, incubation time 30 min, incubation temperature 25 °C
T1 sequence (whole entry): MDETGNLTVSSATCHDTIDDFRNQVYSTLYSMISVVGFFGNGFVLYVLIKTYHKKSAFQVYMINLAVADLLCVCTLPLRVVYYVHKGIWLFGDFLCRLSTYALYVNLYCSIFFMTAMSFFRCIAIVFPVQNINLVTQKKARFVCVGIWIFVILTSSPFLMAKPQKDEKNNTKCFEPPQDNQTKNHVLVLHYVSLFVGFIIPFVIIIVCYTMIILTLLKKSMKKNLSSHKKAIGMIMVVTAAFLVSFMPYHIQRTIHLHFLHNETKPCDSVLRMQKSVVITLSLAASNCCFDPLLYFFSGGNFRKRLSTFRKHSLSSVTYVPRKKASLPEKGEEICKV

[28] = target: Prostaglandin F2-alpha receptor (Homo sapiens) (UniProt P43088); test: Prostanoid FP Eurofins-Panlabs radioligand binding assay; set-up: ligand concentration 0.95 nM; details: Compound concentration 10.0 uM

With `O=C(O)c1cc(-c2ccc(C3CCNCC3)cc2)c2ccc(-c3ccc(C(F)(F)F)cc3)cc2c1` [PPTN] the inhibition at 60 min, 10 µM [1] was -6% (not active), the inhibition [2] was 4% and the IC50 (Phosphodiesterase PDE1) was 17.6 µM. It also gave an inhibition ([3]; Compound concentration 0.1 uM) of -8%, an inhibition ([3]; Compound concentration 1.0 uM) of -5% and an inhibition ([3]; Compound concentration 10.0 uM) of 51%. The inhibition ([3]; Compound concentration 100.0 uM) was 70%, the inhibition [4] was -2% and the inhibition (Rattus norvegicus) was -1%. For the same compound, the inhibition ([5]; Compound concentration 0.01 uM) was 3%, the inhibition ([5]; Compound concentration 0.1 uM) was 1% and the inhibition ([5]; Compound concentration 1.0 uM) was 12%. It also gave an inhibition ([5]; Compound concentration 10.0 uM) of 56%, an inhibition [6] of 2% and an IC50 [7] of 8.03 µM. For the same compound, the Ki [7] was 3.21 µM, the inhibition [8] was -4% and the inhibition [9] was 12%. It also gave an inhibition [10] of -2%, an inhibition [11] of 3% and an IC50 [12] of 9.61 µM. For the same compound, the Ki [12] was 7.2 µM, the inhibition [13] was -3% and the inhibition [14] was -5%. The inhibition [15] was 5%, the inhibition [16] was -2% and the inhibition [17] was -3%. For the same compound, the inhibition [18] was 12%, the inhibition [19] was 2% and the inhibition [20] was 19%. The IC50 [21] was 3.3 µM, the Ki [21] was 3.27 µM and the residual activity [22] was 82%. For the same compound, the inhibition [23] was 4%, the inhibition [24] was -1% and the inhibition at 90 min, 10 µM [25] was 20% (not active). For the same compound, the IC50 [26] was 0.56 µM, the Ki [26] was 0.23 µM and the inhibition ([27]; Compound concentration 0.01 uM) was 0%. The inhibition ([27]; Compound concentration 0.1 uM) was 13%, the inhibition ([27]; Compound concentration 1.0 uM) was 65% and the inhibition ([27]; Compound concentration 10.0 uM) was 97%. It also gave an inhibition [28] of 15%.

Reference: ChEMBL document CHEMBL4507292 (2021)
